ChEMBL document CHEMBL5143595, “Expanding the structure-activity relationship of cytotoxic diphenyl macrocycles” (Bioorg Med Chem Lett, 2022)

Experiments:
[1] = system: PC-3; assay: Antiproliferative activity against human PC-3 cells assessed as inhibition of cell growth at 10 uM incubated for 48 hrs by SRB assay relative to control; assay type: functional; design: scale not given: the % may be the effect or the level left
[2] = system: K562; assay: Antiproliferative activity against human K562 cells assessed as inhibition of cell growth at 10 uM incubated for 48 hrs by SRB assay relative to control; assay type: functional; design: scale not given: the % may be the effect or the level left
[3] = Antiproliferative activity against African green monkey COS-7 cells assessed as inhibition of cell growth at 10 uM incubated for 48 hrs by SRB assay relative to control; assay type: toxicity, cell-based; details: chlorocebus aethiops, read-out: Activity
[4] = system: U-251; assay: Antiproliferative activity against human U-251 cells assessed as inhibition of cell growth at 10 uM incubated for 48 hrs by SRB assay relative to control; assay type: functional; design: scale not given: the % may be the effect or the level left
[5] = system: HCT-15; assay: Antiproliferative activity against human HCT-15 cells assessed as inhibition of cell growth at 10 uM incubated for 48 hrs by SRB assay relative to control; assay type: functional; design: scale not given: the % may be the effect or the level left
[6] = system: SK-LU-1; assay: Antiproliferative activity against human SK-LU-1 cells assessed as inhibition of cell growth at 10 uM incubated for 48 hrs by SRB assay relative to control; assay type: functional; design: scale not given: the % may be the effect or the level left
[7] = system: MCF7; assay: Antiproliferative activity against human MCF7 cells assessed as inhibition of cell growth at 10 uM incubated for 48 hrs by SRB assay relative to control; assay type: functional; design: scale not given: the % may be the effect or the level left
[8] = system: U-251; assay: Antiproliferative activity against human U-251 cells assessed as inhibition of cell growth incubated for 48 hrs by SRB assay; assay type: functional, cell-based; details: U-251, 48 h
[9] = system: K562; assay: Antiproliferative activity against human K562 cells assessed as inhibition of cell growth incubated for 48 hrs by SRB assay; assay type: functional, cell-based; details: K562, 48 h
[10] = system: SK-LU-1; assay: Antiproliferative activity against human SK-LU-1 cells assessed as inhibition of cell growth incubated for 48 hrs by SRB assay; assay type: functional, cell-based; details: SK-LU-1, 48 h

IC50 [8] [µM]	IC50 [9] [µM]	IC50 [10] [µM]	SMILES	Activity [1] [%]	Activity [2] [%]	inhibition at 48 h, 10 µM [3] [%]	Activity [4] [%]	Activity [5] [%]	Activity [6] [%]	Activity [7] [%]
			CCCCCCCCNC(=O)CN1CCCCN(CC(=O)NC(C)(C)C)C(=O)c2cccc(c2)-c2cccc(c2)C1=O	46.5	24.4	19.7	20.5	26.7	9.6	31.7
			CCCCCCCCCCCNC(=O)CN1CCCCN(CC(=O)NC(C)(C)C)C(=O)c2cccc(c2)-c2cccc(c2)C1=O	44.4	42	28.1	10.8	51	23.2	5.3
			CCCCCCNC(=O)CN1CCCCN(CC(=O)NC(C)(C)C)C(=O)c2cccc(c2)-c2cccc(c2)C1=O	19.3	60.1	40	58.5	32.4	74.9	
			CCCCCCCCCCNC(=O)CN1CCCCN(CC(=O)NC(C)(C)C)C(=O)c2cccc(c2)-c2ccc(O)c(c2)C1=O	19.5	55.3	41.8	49.3	28.6	27.7	27.1
			CCCCCCCCCNC(=O)CN1CCCCN(CC(=O)NC(C)(C)C)C(=O)c2cccc(c2)-c2cccc(c2)C1=O	66.9	44	52.4	16	55.1	45.3	45.6
5.9	4	7.6	CCCCCCCCCCCCNC(=O)CN1CCCCN(CC(=O)NC(C)(C)C)C(=O)c2cccc(c2)-c2cccc(c2)C1=O							
			CCCCCCCCCCNC(=O)CN1CCCCN(CC(=O)NC(C)(C)C)C(=O)c2cccc(c2)-c2cccc(c2)C1=O	59.9	38	17.8	16.1	65.5	50.4	72.1
	8.2	4.7	CCCCCCCNC(=O)CN1CCCCN(CC(=O)NC(C)(C)C)C(=O)c2cccc(c2)-c2cccc(c2)C1=O	97.2	79.3	7.6	99.2	77.9	88.6	70.9
			CCCCCCCCCCCCNC(=O)C(c1ccoc1)N1CCCCN(CC(=O)NC(C)(C)C)C(=O)c2cccc(c2)-c2cccc(c2)C1=O (racemic)	48.9	48.8	27.5	27.5	34.3	32.3	66.1
			CCCCCCCCCCCCNC(=O)C(c1ccc(SC)cc1)N1CCCCN(CC(=O)NC(C)(C)C)C(=O)c2cccc(c2)-c2cccc(c2)C1=O (racemic)	28.5	34.9	35.5	20	18.3	45.6	45
			CCCCCCCCCCCCNC(=O)C(c1ccc(O)cc1OC)N1CCCCN(CC(=O)NC(C)(C)C)C(=O)c2cccc(c2)-c2cccc(c2)C1=O (racemic)	37.6	60.9	26.1	48.5	27.3	45.1	38.9
			CCCCCCCCCCCCNC(=O)C(c1ccc([N+](=O)[O-])cc1)N1CCCCN(CC(=O)NC(C)(C)C)C(=O)c2cccc(c2)-c2cccc(c2)C1=O (racemic)	17.1	29	17.5	34.5	22.8	45.2	31.2
			CCCCCCCCCCCCNC(=O)C(c1cc(OC)c(OC)c(OC)c1)N1CCCCN(CC(=O)NC(C)(C)C)C(=O)c2cccc(c2)-c2cccc(c2)C1=O (racemic)	33.9	24	25.6	11.4	31.5	34.4	
			CCCCCCCCCCCCNC(=O)C(c1ccccc1)N1CCCCN(CC(=O)NC(C)(C)C)C(=O)c2cccc(c2)-c2cccc(c2)C1=O (racemic)	32.6	41.3	21.1		27.7	28.5	29.5
			CCCCCCCCCCNC(=O)C(c1ccc(F)cc1)N1CCCCN(CC(=O)NC(C)(C)C)C(=O)c2cccc(c2)-c2cccc(c2)C1=O (racemic)	15.1	64	24.3	19.3	67.2	31.8	47.3
			CCCCCCCCCCCCNC(=O)C(c1ccc(Cl)cc1)N1CCCCN(CC(=O)NC(C)(C)C)C(=O)c2cccc(c2)-c2cccc(c2)C1=O (racemic)	14.4	42.6	42.2	71.3	24.3	52.3	72.2
			CCCCCCCCCCCCNC(=O)C(c1ccc(C)cc1)N1CCCCN(CC(=O)NC(C)(C)C)C(=O)c2cccc(c2)-c2cccc(c2)C1=O (racemic)	21.1	40.7	34.8	48	19.9	32.4	4.8
			CCCCCCCCCCCCNC(=O)C(c1ccco1)N1CCCCN(CC(=O)NC(C)(C)C)C(=O)c2cccc(c2)-c2cccc(c2)C1=O (racemic)	13.5	19.8	35.8	21.9	26.8	34.9	51.3
			CCCCCCCCCCCCNC(=O)C(c1cc(C)ccc1F)N1CCCCN(CC(=O)NC(C)(C)C)C(=O)c2cccc(c2)-c2cccc(c2)C1=O (racemic)	9.5	29	20.2	15.7	31.7	3.1	15.2
			CCCCCCCCCCCCNC(=O)C(c1ccc(OC)cc1)N1CCCCN(CC(=O)NC(C)(C)C)C(=O)c2cccc(c2)-c2cccc(c2)C1=O (racemic)	46.2	56.1	33	50.1	22	37.8	23.6
			CCCCCCCCCCCCNC(=O)C(c1ccc(C(F)(F)F)cc1)N1CCCCN(CC(=O)NC(C)(C)C)C(=O)c2cccc(c2)-c2cccc(c2)C1=O (racemic)	18.6	100	38	47.2	30.3	76.5	75.3
			CCCCCCCCCCCCNC(=O)C(c1ccc(OC)cc1C)N1CCCCN(CC(=O)NC(C)(C)C)C(=O)c2cccc(c2)-c2cccc(c2)C1=O (racemic)		5.2	31.3	23.1	28	29	
			CCCCCCCCCCCCNC(=O)C(c1ccc(F)cc1)N1CCCCN(CC(=O)NC(C)(C)C)C(=O)c2cccc(c2)-c2cccc(c2)C1=O (racemic)	21.3	59.6	40.8	76.9	42.9	18.8	41.5
			CCCCCCCCCCNC(=O)C(c1ccoc1)N1CCCCN(CC(=O)NC(C)(C)C)C(=O)c2cccc(c2)-c2cccc(c2)C1=O (racemic)	35	36.6	22.8	27.5	38.5	18.8	29.5
			CCCCCCCCCCNC(=O)C(c1ccco1)N1CCCCN(CC(=O)NC(C)(C)C)C(=O)c2cccc(c2)-c2cccc(c2)C1=O (racemic)	25.8	28	21.6	25.5	26	25.3	25.7
	11.3		COc1cc([C@@H]2c3cc4c(cc3[C@@H](O[C@@H]3O[C@@H]5CO[C@@H](C)O[C@H]5[C@H](O)[C@H]3O)[C@H]3COC(=O)[C@H]23)OCO4)cc(OC)c1O [ETOPOSIDE]							
